The source of these data is article PMC2746281 (PLoS ONE, 2009).

Structures are written as SMILES. Bounds are passed on as bounds.

As a reminder, the IC50 is the concentration at which inhibition is half-maximal.

One data set concerns the target T1, c-Fms (Homo sapiens, UniProt P07333).
T1 construct: c-Fms (538–972; BC047531); 6xHN (N); made in house; host or cells: baculovirus, Sf9 insect cells
Description: Recombinant kinase ELISA assay, c-Fms. To be noted: recombinant human enzyme; ELISA-based assay, poly(Glu,Tyr 4:1) substrate. The format is biochemical. As for the experimental part:
(§1) Full details for the generation of recombinant human KIT intracellular domain and other protein kinases (including Lyn, platelet derived growth factor receptor β, epidermal growth factor receptor, fibroblast growth factor receptor 1, Src, HCK, PYK, FES, Btk, Bmx, c-Ret, c-Fms, Syk, and c-Met) are provided in the Supplemental Methods (see Supporting Information; Methods S1). Experiments on ABL1, Akt1, protein kinase C-α, insulin-like growth factor receptor 1, and Pim1 were carried out by Proqinase (Germany). All other recombinant protein kinases were performed in-house using an enzyme-linked immunoassay; experimental details are provided in the Supplemental Methods (see Supporting Information; Methods S1).
(§2) The sequences encoding PDGF receptor β (residues 554–1106; GenBank accession no. BC032224), Lyn B (2–583; accession no. BC059394), fibroblast growth factor receptor 1 (572–959; accession no. BC018128), Src (2–536; accession no. BC011566), Btk (2–659; accession no. BC109079), Bmx (2–675; accession no. BC016652), c-Ret (713–1114; accession no. BC004257), c-Fms (538–972; BC047531), Syk (2–612; BC011399), Hck (2-526; accession no. BC014435), Fes (2-822; accession no. BC035357), PYK2 (2-1006; accession no. BC042599) and c-Met (949–1398; accession no. lifeseq3489592) were amplified by PCR from IMAGE cDNA clones purchased from Openbiosystems. […]
A general note: An ELISA detects its analyte on a solid surface through an enzyme-linked reagent.

Data set [1] has as its target T2, Insulin-like growth factor-I receptor (Homo sapiens, UniProt P08069). Description: Recombinant kinase screen (Proqinase), IGF-I receptor. Type of data set: biochemical. The conditions noted are these: recombinant human enzyme; single experiment, kinase screen by Proqinase. As for the experimental part: as §1
Another data set addresses T3, c-Met (Homo sapiens, UniProt P08581).
T3 construct: c-Met (949–1398); 6xHN (N); made in house; host or cells: baculovirus, Sf9 insect cells
The data set can be described thus: Recombinant kinase ELISA assay, c-Met. Type of data set: biochemical. The conditions noted are these: recombinant human enzyme; ELISA-based assay, poly(Glu,Tyr 4:1) substrate. The method, then: as §1, §2

A further data set has as its target Focal adhesion kinase (Homo sapiens, UniProt Q05397). The data set can be described thus: Recombinant kinase ELISA assay, focal adhesion kinase. Type of data set: biochemical. To be noted: recombinant human enzyme; ELISA-based assay, poly(Glu,Tyr 4:1) substrate. The method, then:
as §1

In another data set the target is T4, Syk (Homo sapiens, UniProt P43405).
T4 construct: Syk (2–612; BC011399); 6xHN (N); made in house; host or cells: baculovirus, Sf9 insect cells
The data set can be described thus: Recombinant kinase ELISA assay, Syk. Type of data set: biochemical. To be noted: recombinant human enzyme; ELISA-based assay, poly(Glu,Tyr 4:1) substrate. As for the experimental part: as §1, §2

Another data set has as its target T5, Fes (Homo sapiens, UniProt P07332).
T5 construct: Fes (2-822; BC035357); 6xHN (N); made in house; host or cells: baculovirus, Sf9 insect cells
The data set can be described thus: Recombinant kinase ELISA assay, Fes. To be noted: recombinant human enzyme; ELISA-based assay, poly(Glu,Tyr 4:1) substrate. Type of data set: biochemical. The method, then:
as §1, §2

The target of a further data set is T6, KIT D^814V (murine) (Mus musculus, UniProt P05532, D818V).
T6 construct: expressed in transfected cells; host or cells: Ba/F3
Description: Ba/F3 cell proliferation (WST-1), KIT D814V. To be noted: Ba/F3 cells expressing the enzyme, read-out: Cell-based assay IC50, KIT D^814V (murine). (In general: Formazan colour is commonly taken as a measure of viable cells.)

The next data set has as its target T7, KIT Δ27 (murine) (Mus musculus, UniProt P05532, DEL551-559).
T7 construct: expressed in transfected cells; host or cells: Ba/F3
Description: Ba/F3 cell proliferation (WST-1), KIT Δ27. The conditions noted are these: Ba/F3 cells expressing the enzyme, read-out: Cell-based assay IC50, KIT Δ27 (murine).

The target in the next data set is Flt3 (Homo sapiens, UniProt P36888). The data set can be described thus: Ba/F3 cell proliferation (WST-1), Flt3. The conditions noted are these: Ba/F3 cells expressing the enzyme, read-out: Cell-based assay IC50, Flt3.
For data set [2], the target named is Fibroblast growth factor receptor 3 (Homo sapiens, UniProt P22607). The data set can be described thus: Ba/F3 cell proliferation (WST-1), FGFR3. To be noted: Ba/F3 cells expressing the enzyme, read-out: Cell-based assay IC50, Fibroblast growth factor receptor 3.
Chain of Fibroblast growth factor receptor 3 (P22607 23-806): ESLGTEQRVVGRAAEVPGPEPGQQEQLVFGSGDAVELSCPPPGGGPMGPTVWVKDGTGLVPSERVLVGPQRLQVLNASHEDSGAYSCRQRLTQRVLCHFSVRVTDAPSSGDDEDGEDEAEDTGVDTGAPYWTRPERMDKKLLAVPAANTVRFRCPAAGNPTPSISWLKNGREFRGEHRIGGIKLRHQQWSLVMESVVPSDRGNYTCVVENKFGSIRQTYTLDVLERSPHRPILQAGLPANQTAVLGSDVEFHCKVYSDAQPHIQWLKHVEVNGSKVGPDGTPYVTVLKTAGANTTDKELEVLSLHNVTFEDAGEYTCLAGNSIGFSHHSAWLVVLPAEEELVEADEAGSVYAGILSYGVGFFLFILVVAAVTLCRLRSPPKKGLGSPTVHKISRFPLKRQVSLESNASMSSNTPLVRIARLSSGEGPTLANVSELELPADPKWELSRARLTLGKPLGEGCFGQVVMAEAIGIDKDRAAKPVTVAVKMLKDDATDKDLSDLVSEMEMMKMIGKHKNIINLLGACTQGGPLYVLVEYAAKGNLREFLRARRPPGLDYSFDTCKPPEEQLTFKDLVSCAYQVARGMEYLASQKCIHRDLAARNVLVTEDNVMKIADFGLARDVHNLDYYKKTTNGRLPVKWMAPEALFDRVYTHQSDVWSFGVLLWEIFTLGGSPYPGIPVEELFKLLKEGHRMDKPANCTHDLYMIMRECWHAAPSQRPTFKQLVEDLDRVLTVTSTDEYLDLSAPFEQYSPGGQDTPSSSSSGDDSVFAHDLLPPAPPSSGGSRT
Another data set has as its target Jak2 (Homo sapiens, UniProt O60674). Description: Ba/F3 cell proliferation (WST-1), Jak2. The conditions noted are these: Ba/F3 cells expressing the enzyme, read-out: Cell-based assay IC50, Jak2.
The target of the next data set is T8, Jak3 (Homo sapiens, UniProt P52333).
T8 construct: expressed in transfected cells; host or cells: Ba/F3
Description: Ba/F3 cell proliferation (WST-1), Jak3. To be noted: Ba/F3 cells expressing the enzyme, read-out: Cell-based assay IC50, Jak3.

Another data set relates to CBMC. The data set can be described thus: CBMC cell viability. The conditions noted are these: incubation of CBMC for up to 9 hours. Type of data set: cell-based, human.
Data set [3] has as its system Salmonella typhimurium and Escherichia coli. The data set can be described thus: Bacterial reverse mutation test. The conditions noted are these: our unpublished results.
Data set [4] has as its system cultured human lymphocytes. Description: Chromosome aberration test in cultured human lymphocytes. Type of data set: cell-based. The conditions noted are these: our unpublished results.
For a further data set, the system named is mouse bone marrow cells. Description: Chromosome / mitotic apparatus damage in mouse bone marrow cells. The format is in vivo. To be noted: two daily administrations at 437.5, 875, or 1750 mg/kg/day, our unpublished results.
Data set [5] addresses T2, Insulin-like growth factor-I receptor. Description: Ba/F3 cell proliferation (WST-1), IGF-I receptor. More on the design: expressed in transfected cells; host or cells: Ba/F3 (general description; not repeated for this kinase). To be noted: Ba/F3 cells expressing the enzyme, read-out: Cell-based assay IC50, Insulin-like growth factor-I receptor.
Another data set has as its target PDGFRβ (Homo sapiens, UniProt P09619). The data set can be described thus: Ba/F3 cell proliferation (WST-1), PDGFRβ. To be noted: Ba/F3 cells expressing the enzyme, read-out: Cell-based assay IC50, PDGFRβ. More on the design: expressed in transfected cells; host or cells: Ba/F3 (general description of the cell system; not repeated for this kinase).

T2 sequence (P08069 31-1367): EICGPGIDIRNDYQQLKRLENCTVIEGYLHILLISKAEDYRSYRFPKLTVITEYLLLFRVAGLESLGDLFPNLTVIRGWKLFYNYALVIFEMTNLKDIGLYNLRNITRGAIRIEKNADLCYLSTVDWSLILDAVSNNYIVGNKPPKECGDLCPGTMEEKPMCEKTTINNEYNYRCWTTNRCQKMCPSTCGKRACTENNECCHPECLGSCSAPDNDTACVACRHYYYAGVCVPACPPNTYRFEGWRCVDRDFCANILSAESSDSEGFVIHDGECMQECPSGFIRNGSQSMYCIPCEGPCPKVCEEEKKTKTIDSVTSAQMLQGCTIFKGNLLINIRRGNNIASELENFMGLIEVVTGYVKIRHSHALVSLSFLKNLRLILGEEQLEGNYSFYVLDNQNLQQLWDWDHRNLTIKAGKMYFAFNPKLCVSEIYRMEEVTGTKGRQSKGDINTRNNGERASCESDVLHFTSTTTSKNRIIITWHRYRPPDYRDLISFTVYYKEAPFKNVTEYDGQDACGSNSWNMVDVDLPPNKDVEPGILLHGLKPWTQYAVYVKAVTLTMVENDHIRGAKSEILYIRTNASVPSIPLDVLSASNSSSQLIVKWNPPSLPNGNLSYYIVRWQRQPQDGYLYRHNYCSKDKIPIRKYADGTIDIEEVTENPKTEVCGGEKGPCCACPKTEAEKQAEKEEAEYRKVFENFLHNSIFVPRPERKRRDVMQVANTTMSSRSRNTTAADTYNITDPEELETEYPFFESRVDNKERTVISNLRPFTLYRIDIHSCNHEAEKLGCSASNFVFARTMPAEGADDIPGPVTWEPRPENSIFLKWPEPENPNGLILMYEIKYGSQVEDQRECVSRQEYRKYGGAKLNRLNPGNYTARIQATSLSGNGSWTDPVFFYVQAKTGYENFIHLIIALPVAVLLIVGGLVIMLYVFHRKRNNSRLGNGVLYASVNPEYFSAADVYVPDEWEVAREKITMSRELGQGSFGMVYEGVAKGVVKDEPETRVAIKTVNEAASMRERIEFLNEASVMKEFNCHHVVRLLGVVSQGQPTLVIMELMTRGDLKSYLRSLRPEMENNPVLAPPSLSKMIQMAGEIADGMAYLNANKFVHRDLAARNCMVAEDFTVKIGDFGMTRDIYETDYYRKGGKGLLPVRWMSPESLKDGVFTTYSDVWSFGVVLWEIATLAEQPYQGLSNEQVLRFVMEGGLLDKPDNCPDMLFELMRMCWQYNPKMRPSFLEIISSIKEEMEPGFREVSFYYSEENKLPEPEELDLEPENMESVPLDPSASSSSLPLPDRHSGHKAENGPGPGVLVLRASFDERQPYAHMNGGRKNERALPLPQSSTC
Chain of Jak2 (O60674 whole entry): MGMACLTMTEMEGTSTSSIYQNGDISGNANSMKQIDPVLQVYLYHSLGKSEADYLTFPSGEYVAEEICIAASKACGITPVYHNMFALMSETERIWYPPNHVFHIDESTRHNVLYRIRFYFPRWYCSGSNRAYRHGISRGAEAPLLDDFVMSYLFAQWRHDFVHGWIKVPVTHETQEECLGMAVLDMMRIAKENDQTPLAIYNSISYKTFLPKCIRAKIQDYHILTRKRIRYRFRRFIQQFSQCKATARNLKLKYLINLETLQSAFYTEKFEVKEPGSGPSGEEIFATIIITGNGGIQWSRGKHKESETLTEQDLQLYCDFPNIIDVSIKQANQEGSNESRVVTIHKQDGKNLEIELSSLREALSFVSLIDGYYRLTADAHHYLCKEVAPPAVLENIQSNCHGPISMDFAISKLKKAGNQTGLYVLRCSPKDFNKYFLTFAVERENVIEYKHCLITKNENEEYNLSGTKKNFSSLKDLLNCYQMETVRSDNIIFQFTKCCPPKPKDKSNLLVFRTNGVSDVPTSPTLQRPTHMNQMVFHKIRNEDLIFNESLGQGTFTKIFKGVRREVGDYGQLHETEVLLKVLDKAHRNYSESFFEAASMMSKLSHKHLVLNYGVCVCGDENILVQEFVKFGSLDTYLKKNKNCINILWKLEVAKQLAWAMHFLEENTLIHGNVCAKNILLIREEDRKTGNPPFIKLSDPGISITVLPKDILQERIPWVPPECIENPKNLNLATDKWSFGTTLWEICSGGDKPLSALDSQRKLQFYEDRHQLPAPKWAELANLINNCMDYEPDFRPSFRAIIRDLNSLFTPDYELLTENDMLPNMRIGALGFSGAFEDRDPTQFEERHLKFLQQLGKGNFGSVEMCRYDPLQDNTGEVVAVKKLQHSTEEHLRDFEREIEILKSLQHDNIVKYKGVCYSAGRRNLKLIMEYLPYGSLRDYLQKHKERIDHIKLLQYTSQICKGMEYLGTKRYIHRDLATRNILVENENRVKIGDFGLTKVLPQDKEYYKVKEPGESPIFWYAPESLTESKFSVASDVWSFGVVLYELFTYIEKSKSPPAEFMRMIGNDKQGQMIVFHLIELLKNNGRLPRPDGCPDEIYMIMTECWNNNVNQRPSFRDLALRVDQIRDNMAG
Chain of Focal adhesion kinase (Q05397 whole entry): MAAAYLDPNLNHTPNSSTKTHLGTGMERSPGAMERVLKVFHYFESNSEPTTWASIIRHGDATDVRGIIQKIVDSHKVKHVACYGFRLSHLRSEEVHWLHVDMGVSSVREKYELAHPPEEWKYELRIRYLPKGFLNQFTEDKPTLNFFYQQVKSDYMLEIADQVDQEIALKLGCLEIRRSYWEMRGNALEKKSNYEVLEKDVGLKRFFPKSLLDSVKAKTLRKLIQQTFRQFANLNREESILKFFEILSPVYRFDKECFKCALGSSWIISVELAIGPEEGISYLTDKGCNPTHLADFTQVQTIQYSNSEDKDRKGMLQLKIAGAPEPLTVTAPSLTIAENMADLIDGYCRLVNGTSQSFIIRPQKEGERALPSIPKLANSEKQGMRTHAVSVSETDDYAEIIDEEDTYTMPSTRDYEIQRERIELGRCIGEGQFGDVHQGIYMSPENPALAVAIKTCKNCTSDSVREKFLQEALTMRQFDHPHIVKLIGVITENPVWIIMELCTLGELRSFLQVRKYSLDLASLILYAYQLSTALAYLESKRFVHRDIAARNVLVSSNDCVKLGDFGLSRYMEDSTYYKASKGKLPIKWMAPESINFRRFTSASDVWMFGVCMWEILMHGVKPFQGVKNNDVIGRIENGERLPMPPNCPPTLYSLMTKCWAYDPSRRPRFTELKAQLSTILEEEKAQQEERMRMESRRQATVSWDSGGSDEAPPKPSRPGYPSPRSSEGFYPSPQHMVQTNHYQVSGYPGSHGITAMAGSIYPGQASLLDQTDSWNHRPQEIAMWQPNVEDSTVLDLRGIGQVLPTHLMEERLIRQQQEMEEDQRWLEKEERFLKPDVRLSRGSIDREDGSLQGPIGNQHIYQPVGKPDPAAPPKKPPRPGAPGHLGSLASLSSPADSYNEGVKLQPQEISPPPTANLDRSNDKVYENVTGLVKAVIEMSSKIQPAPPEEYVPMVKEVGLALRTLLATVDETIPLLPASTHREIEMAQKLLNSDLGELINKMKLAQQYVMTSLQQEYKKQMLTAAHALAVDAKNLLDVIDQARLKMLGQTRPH
T3 sequence (P08581 949-1390 limits assumed): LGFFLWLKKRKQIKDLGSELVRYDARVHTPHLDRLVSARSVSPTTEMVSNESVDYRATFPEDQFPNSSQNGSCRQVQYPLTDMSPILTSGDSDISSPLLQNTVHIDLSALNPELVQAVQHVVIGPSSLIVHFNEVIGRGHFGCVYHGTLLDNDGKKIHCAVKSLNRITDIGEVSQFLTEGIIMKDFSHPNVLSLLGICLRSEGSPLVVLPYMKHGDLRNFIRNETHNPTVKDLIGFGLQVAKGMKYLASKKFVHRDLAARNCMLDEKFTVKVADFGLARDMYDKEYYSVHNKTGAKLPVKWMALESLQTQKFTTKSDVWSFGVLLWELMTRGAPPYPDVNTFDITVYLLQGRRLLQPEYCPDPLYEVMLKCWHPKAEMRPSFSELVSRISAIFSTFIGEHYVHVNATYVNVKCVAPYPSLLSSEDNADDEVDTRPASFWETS

Take `CS(=O)(=O)O.CS(=O)(=O)O.Cc1ccc(NC(=O)c2ccc(CN3CCN(C)CC3)cc2)cc1Nc1nc(-c2cccnc2)cs1` [masitinib, 4-(4-methylpiperazin-1-ylmethyl)-N-[4-methyl-3-(4-pyridin-3ylthiazol-2-ylamino)phenyl]benzamide-mesylate methane sulfonic acid salt]: the half-maximal inhibitory concentration (IC50) on c-Fms was 1.48 ± 0.54 µM; in [1] it was above 10 µM; on c-Met it was above 10 µM; on Focal adhesion kinase, above 10 µM; on Syk, above 10 µM; at Fes, above 10 µM. For the same molecule, the IC50 was determined as 3 ± 0.1 µM at KIT D^814V (murine); 0.005 ± 0.0003 µM on KIT Δ27 (murine); 5 ± 2 µM at Flt3; 5.5 ± 2.8 µM in data set [2]; 10 ± 0.8 µM at Jak2; 10 ± 0.5 µM at Jak3. Also, the IC50 in data set [5] was determined as 10 ± 0.67 µM; at PDGFRβ it was 0.05 ± 0.02 µM. In addition, in the data set on CBMC, the “effect on cell viability” value is reported as “no affect on cell viability”. The “mutagenicity in bacterial reverse mutation tests” value in data set [3] is recorded as “not mutagenic”. The chromosome aberrations entry in [4] was “does not cause chromosome aberrations”. Also, the “damage to chromosomes or the mitotic apparatus” value with mouse bone marrow cells is given as “does not cause damage to chromosomes or the mitotic apparatus”.
